# From patent US6872850B2, “Small molecule inhibitors of secretion of proteins encoded by ARE-mRNAs” (Message Pharmaceuticals, priority 2001, dated 2005)
# Structures can show the parent of a compound that is named as a salt.
# How the values were obtained:
# 3′ UTR of the TNFα gene = test: cell-based luciferase reporter assay, 5B cell line (luciferase gene with entire 3′ UTR of the TNFα gene); parameters: species or system mouse
# [1] = test system: control cell line 3B (Raw 264.7, CMV-luciferase); test: luciferase reporter assay, control 3B cell line (luciferase without 3′ UTR of TNFα); assay type: cell-based, mouse
# Procedure: The candidate compounds were tested in a high-throughput, cell-based luciferase reporter assay. For this assay, a commercially available mouse macrophage Raw 264.7 cell line was stably transfected with a construct containing the CMV promoter operably linked to the luciferase gene which was modified using standard molecular biology techniques to contain the entire 3′ UTR of the TNFα gene. This 3′ UTR is important for the stability and translation of TNFα in cells. To control for effects of candidate compounds that are not specific for TNFα, a control cell line, called “3B,” was generated by stably transfecting the 264.7 cell line with a commercially available construct containing the luciferase gene (without the addition of the heterologous 3′ UTR of the TNFα gene) under the regulation of the CMV promoter.
# Both the 3B and 5B cell lines were incubated in the presence of 10 μM of a candidate compound for one hour. Then, lipopolysaccharide (LPS) was added to stimulate TNFα secretion. Luciferase activity was measured by determining the luminescence intensity due to the reaction of lucifern, ATP, Mg^2+, and molecular O2 (see, for example, Ausubel et al., supra). The luciferase activity in a cell incubated with a candidate compound was reported as a percentage of the luciferase activity for the corresponding cell incubated with DMSO vehicle only. […]
# TNFα = test: ELISA of TNFα secreted into the media after LPS; assay type: cell-based; conditions: for effect on amount of secreted TNFα (direct TNFα secretion assay), in words: after LPS stimulation
# How it was run: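 Candidate compounds were tested directly for their ability to lower the amount of TNFα that cells secrete. A standard ELISA quantified TNFα released into the culture media. Each compound's effect is given as a percentage of the TNFα secreted by control cells that received only DMSO vehicle.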
compound,measurement,setting,value
"C/C(=N\NC(=N)N)c1ccc(C(=O)N[C@@H](Cc2ccccc2)C(=O)NCCNC(=O)[C@H](Cc2ccccc2)NC(=O)c2ccc(/C(C)=N/NC(=N)N)cc2)cc1 [MES 10094, (E,E)-Bisguanylhydrazone of 1-[(S)-N-(4-Acetylbenzoyl)-2-amino-3-phenylpro-panoyl]-4-[(S)-N-(4-acetylbenzoyl)-2-amino-3-phenylpropanoyl]-1,4-diaza-butane bis hydrochloride]","effect on luciferase activity in the 5B cell line (luciferase assay), in words",3′ UTR of the TNFα gene,strongly inhibited
same,"effect on luciferase activity in the 3B control cell line, in words",[1],only weakly inhibited
same,"effect on amount of secreted TNFα (direct TNFα secretion assay), in words",TNFα,inhibited TNFα secretion
"(Z,Z)-Bisguanylhydrazone of 1-[(S)-N-(4-benzoylbenzoyl)-2-amino-3-phenylpropanoyl]-4-[(2S)-N-(4-benzoylbenzoyl)-2-amino-4-methylpentanoyl]-1,4-piperazine bis trifluoroacetate [MES 10165]","effect on luciferase activity in the 5B cell line (luciferase assay), in words",3′ UTR of the TNFα gene,inhibited TNFα secretion
same,Luciferase 5B (% of DMSO control),"3′ UTR of the TNFα gene; 10 μM compound, 1 h, then LPS, 5B cell line",37 % of DMSO control
same,Luciferase 5B/3B (% of DMSO control 5B)/(% of DMSO control 3B),"3′ UTR of the TNFα gene; 10 μM compound, ratio of 5B to control 3B cell line",63 (% of DMSO control 5B)/(% of DMSO control 3B)
same,TNFα Secretion (% of DMSO control),"TNFα; 10 μM compound, 1 h, then LPS",36 % of DMSO control
same,"effect on amount of secreted TNFα (direct TNFα secretion assay), in words",TNFα,inhibited TNFα secretion
